{"source": "patent US8067015B2", "about": "“Methods and compositions for the treatment and prevention of Staphylococcus and other bacterial infections” (priority 1997, dated 2011)", "key": {"[1]": {"tested_on": "S. epidermidis GISE strain", "test": "Rat subcutaneous Dacron graft infection model, GISE strain", "assay_type": "in vivo", "conditions": "for Bacterial concentration, GISE: 2×10^7 bacteria, explanted day 7; for Bacterial concentration, GISE / Bacterial load on graft, GISE: mean ± SD; for Bacterial load on graft, GISE: Table 3A S. epidermidis", "experimental": "(§1) Rats (Wistar adult males (300-350 g), n=15/experimental group) were anaesthetized, hair on their back shaved and the skin cleansed with 10% povidone-iodine solution. A subcutaneous pocket was made on the side of the median line by a 1.5 cm incision. Aseptically, 1 cm^2 sterile collagen-sealed Dacron graft (Albograft™, Sorin Biomedica Cardio, S.p.A., Saluggi VC, Italy) was implanted into the pocket. […] Pockets were closed by skin clips and 1 ml sterile saline solution with or without 2×10^7 bacteria was inoculated onto the graft surface using a tuberculin syringe to create a subcutaneous fluid-filled pocket. Some of the animals that had grafts soaked only with RIP or saline were injected intraperitoneally with antibiotics (cefazolin 30 mg/kg, imipenem 30 mg/kg, teicoplanin 10 mg/kg, levofloxacin 10 mg/kg). Grafts were explanted 7 days following implantation.\n(§2) The explanted grafts were placed in sterile tubes, washed in sterile saline solution, placed in tubes containing 10 ml of phosphate-buffered saline solution and sonicated for 5 min to remove the adherent bacteria from the grafts. Quantitation of viable bacteria was performed by culturing serial 10-fold dilutions (0.1 ml) of the bacterial suspension on blood agar plates. All plates were incubated at 37° C. for 48 hr and evaluated for the presence of the strain. Bacteria were quantitated by counting the number of colony forming unites (CFU) per plate. To determine if bacteria were efficiently removed from the graft, washed and sonicated grafts were observed under a Nikon Eclipse E 600 optical microscope (Nikon Y-THS, Japan).\n(§3) Quantitative culture results of the in vivo experiments were presented as mean+SD of the mean. Comparisons of the results were performed by the analysis of variance (ANOVA) on the log-transformed data. Statistical analysis was performed for in vitro adhesion assays using Student's t-Test by Microsoft Excel (Microsoft, Wash.). Significance was accepted when the P value was <0.05.\n(§4) To test if RIP can prevent graft-associated infections, Dacron grafts were coated with or without RIP, and with or without various types of antibiotics (for local prophylaxis experiments). Coated grafts were implanted in rats, bacteria injected into the implants, implants removed after a week, and bacterial load determined. Alternatively, Dacron grafts were first coated with RIP, bacteria injected, and antibiotics were administered by the intraperitoneal route (for parenteral prophylaxis experiments). As a negative control, grafts were implanted without local or parenteral RIP/antibiotics prophylaxis and no bacteria were injected. As a positive control, grafts were implanted, bacteria were injected, but no RIP/antibiotics prophylaxis was given.\n(§5) Animals (15/group) received a Dacron-graft implanted in a subcutaneous pocket. Graft was subsequently infected with either S. epidermidis (tested on MSSE, MRSE and GISE) or with S. aureus (tested on MSSA, MRSA and GISA). […]"}, "[2]": {"tested_on": "S. epidermidis MSSE strain", "test": "Rat subcutaneous Dacron graft infection model, MSSE strain", "assay_type": "in vivo", "conditions": "for Bacterial concentration, MSSE: 2×10^7 bacteria, explanted day 7; for Bacterial concentration, MSSE / Bacterial load on graft, MSSE: mean ± SD; for Bacterial load on graft, MSSE: Table 3A S. epidermidis", "experimental": "as §1, §2, §3, §4, §5"}, "[3]": {"tested_on": "S. epidermidis (all strains tested)", "test": "Rat subcutaneous Dacron graft infection model, all strains tested (GISE, MRSE, MSSE)", "assay_type": "in vivo", "conditions": "RIP-coated graft", "experimental": "as §1, with “Some of the animals that had grafts soaked only with RIP or saline were injected intraperitoneally with antibiotics (cefazolin 30 mg/kg, imipenem 30 mg/kg, teicoplanin 10 mg/kg, levofloxacin 10 mg/kg). Grafts were explanted 7 days following implantation.” left out\nas §2, with “To determine if bacteria were efficiently removed from the graft, washed and sonicated grafts were observed under a Nikon Eclipse E 600 optical microscope (Nikon Y-THS, Japan).” left out\nQuantitative culture results of the in vivo experiments were presented as mean+SD of the mean. […]"}, "TRAP": {"tested_on": "TRAP", "conditions": "1 hr", "experimental": "S. aureus (right panel) and S. epidermidis (left panel) were in vivo phosphorylated for 1 hr in the presence or absence of RIP. Total cell homogenate was separated by SDS PAGE and the gel was autoradiographed.\nTo test for TRAP phosphorylation in S. epidermidis, in vivo phosphorylation assays were carried out as described for S. aureus. Briefly, early exponential S. epidermidis were grown in the presence of phosphate-free buffer supplemented with radiolabeled orthophosphate with or without RIP (10 μg/10^7 cells). After a 1 hr incubation period, the cells were collected by centrifugation, treated with lysostaphin followed by the addition of sample buffer, and total cell homogenate was applied without boiling to 15% SDS PAGE and the gel autoradiographed. The same experiment was carried out on 6390B S. aureus cells as a positive control."}, "RNAIII": {"tested_on": "RNAIII", "conditions": "cited from earlier work"}, "S. aureus Smith Diffuse": {"tested_on": "S. aureus Smith Diffuse", "conditions": "mice; cited from earlier work"}, "S. aureus MS": {"tested_on": "S. aureus MS", "conditions": "rabbits; cited from earlier work"}, "[4]": {"tested_on": "S. aureus Newbould 305, AE-1, and environmental infections", "conditions": "cows; cited from earlier work"}, "[5]": {"conditions": "A. Local prophylaxis: graft soaked 20 min in RIP 10 mg/l and/or antibiotic (mupirocin 100, quinupristin-dalfopristin 50, levofloxacin 30, rifampin 5 mg/l), rats"}, "[6]": {"conditions": "B. Parenteral prophylaxis: antibiotic intraperitoneally (cefazolin 30, imipenem 30, teicoplanin 10, levofloxacin 10 mg/kg), RIP as 10 mg/l graft soak, rats"}, "[7]": {"conditions": "RIP local (graft soaked in 20 mg/l RIP)"}, "[8]": {"conditions": "RIP parenteral (10 mg/l RIP i.p.)"}, "[9]": {"conditions": "peptide-soaked/coated Dacron graft (RIP 10 mg/l), no antibiotic, rats, day 7"}}, "note": "Read-outs that look alike come from different tables or passages of the source. Where no end group is shown, it is not given here."}
{"substance": "YSPWTNF(—NH2) (YSPWTNF-NH2) [RIP]", "values": [{"measurement": "Bacterial concentration, GISE", "setting": "[1]; [5]", "result": "6.2 ± 2.4 ×10^4 CFU/ml"}, {"measurement": "Bacterial concentration, GISE", "setting": "[1]; [6]", "result": "6.2 ± 2 ×10^4 CFU/ml"}, {"measurement": "Bacterial load on graft, GISE", "setting": "[1]; [7]", "result": "0.46 ± 0.13 ×10^4 CFU/ml"}, {"measurement": "Bacterial load on graft, GISE", "setting": "[1]; RIP local + RIP parenteral", "result": "0.00 ± 0 ×10^4 CFU/ml"}, {"measurement": "Bacterial load on graft, GISE", "setting": "[1]; [8]", "result": "0.31 ± 0.6 ×10^4 CFU/ml"}, {"measurement": "Quantitative culture results of explanted graft, GISE strain", "setting": "[1]; [9]", "result": "6.2×10^4±2.0×10^4 CFU/ml"}, {"measurement": "RIP graft treatment inhibiting bacteria better than parenteral antibiotics prophylaxis", "setting": "[1]; rats inoculated with GISE", "result": "10 to 100", "unit": "fold"}, {"measurement": "Bacterial concentration, MSSE", "setting": "[2]; [5]", "result": "0.91 ± 0.23 ×10^4 CFU/ml"}, {"measurement": "Bacterial concentration, MSSE", "setting": "[2]; [6]", "result": "0.91 ± 0.23 ×10^4 CFU/ml"}, {"measurement": "Bacterial load on graft, MSSE", "setting": "[2]; [7]", "result": "0.08 ± 0.024 ×10^4 CFU/ml"}, {"measurement": "Bacterial load on graft, MSSE", "setting": "[2]; RIP local + RIP parenteral", "result": "0.00 ± 0 ×10^4 CFU/ml"}, {"measurement": "Bacterial load on graft, MSSE", "setting": "[2]; [8]", "result": "0.067 ± 0.019 ×10^4 CFU/ml"}, {"measurement": "Quantitative culture results of explanted graft, MSSE strain", "setting": "[2]; [9]", "result": "9.1×10^3±2.3×10^3 CFU/ml"}, {"measurement": "Reduction of bacterial load", "setting": "[3]", "result": 3, "unit": "log"}, {"measurement": "TRAP phosphorylation", "setting": "TRAP; RIP 10 μg/10^7 cells, S. epidermidis", "result": "can be inhibited"}, {"measurement": "TRAP phosphorylation", "setting": "TRAP; in presence or absence of RIP, S. aureus", "result": "inhibits TRAP phosphorylation"}, {"measurement": "Inhibiting RNAIII in vitro", "setting": "RNAIII", "result": "extremely effective"}, {"measurement": "Suppressing S. aureus infection: cellulitis", "setting": "S. aureus Smith Diffuse", "result": "extremely effective"}, {"measurement": "Suppressing S. aureus infection: osteomyelitis", "setting": "S. aureus MS", "result": "extremely effective"}, {"measurement": "Suppressing S. aureus infection: mastitis", "setting": "[4]", "result": "extremely effective"}]}
